Where a name gives a salt, the structure may show the parent alone. Read-outs that look alike come from different tables or passages of the source. Residues, ends and D or L forms follow the SMILES beside them. *: point of attachment. pNA = O=[N+]([O-])c1ccc(N*)cc1; Bz = O=C(c1ccccc1)*
Key:
ISP1-ISP2 enzyme complex [1] = target: T1, ISP1-ISP2 enzyme complex (Mus musculus, UniProt Q924N9+Q99MS4); test: Inhibition of proteolytic activity of ISP enzyme complex, chromogenic assay with BAPNA as substrate; format: biochemical; conditions: for Ki: from IC50 by Cheng and Prusoff equation, read-out: Dissociation Constant (Ki); for Influence on ISP activity: general trypsin inhibitors; for Affinity for ISP enzyme: Fig. 4B, compared to Benzamidine
T1 construct: The native ISP enzyme complex was purified from mouse uterine tissue homogenates; from tissue; host or cells: uterus of pregnant CD1 mice (4.5-6.5 dpc)
Description: Many general serine proteinase inhibitors were tested in order to identify suitable ISP inhibitors when BAPNA was used as a substrate. These included Benzamidine hydrochloride, 4-(Amidino-Phenyl)-Methane-Sulfonyl Fluoride (APMSF), L-1 Chloro-3- [4-tosyl-amido]-7-amino-2-heptanone. HCl (TLCK), Trypsin Soybean Inhibitor (TSI), Bis (5-amidino-2-benzimadozolyl) methane (BABIM), Gabexate mesylate, Nafamostat, and the kunitz family serpins Uterine Plasmin-Trypsin Inhibitor (UPTI) and Secretary Leukocyte proteinase inhibitor (SLPI).
Only inhibitors specific for trypsin-like serine proteinases were able to inhibit the ISPs (Fig. 4B and Additional file 2. Table 1). IC50 (concentration of an inhibitor capable of inhibiting the enzyme activity by 50%) values were obtained by plotting inhibition data, which were extrapolated into Cheng and Prusoff's equation to derive the dissociation constant (Ki).
(§1) Chromogenic assays were carried out using the p-Nitroanilide conjugated peptidic substrates. The reaction conditions used were: 4 mM BAPNA (substrate), in 25 mM Tris.Cl (pH 8.0) and 10 mM EDTA reaction buffer, in a total reaction volume of 0.5 mL. The reactions were carried out at room temperature in a glass cuvette (1 cm path length), and scanned at wavelength maxima of 405 nm using a spectrophotometer. 1 Unit of enzyme is defined as enzyme activity sufficient for the breakdown of 1 μM of substrate/ml/min. The affinity of ISP complex with various substrates was characterized by measuring enzyme activity at differing substrate concentrations and plotting enzyme activity [V] vs. substrate concentration [S]. The Km was calculated using the Michaelis Menton equation (Km = [S] at 1/2 Vmax).
IC50 values were derived by plotting enzyme activity (V) vs. inhibitor concentration [I]. Dissociation constants (Ki) values for different inhibitors were determined by using the Cheng and Prusoff equation (Ki = IC50/1 + [S]/Km).

blastocysts = test: In vitro embryo hatching; format: cell-based
Source text: In order to define a physiological role for the ISPs, the effect of inhibiting ISP activity upon embryo hatching, outgrowth (Fig. 6 and 7) and implantation (Table 1) was investigated. Blastocysts were first cultured in the presence or absence of anti-ISP mAbs or selected inhibitors. […] Similarly, the effect of varying concentrations of anti-ISP1 and anti-ISP2 mAbs was studied both individually and together (Fig. 7C, E and 7G).
(§2) Blastocysts were collected by flushing the uteri of day 3.5 post coetum dams with M2 (Sigma Aldrich and Co.) medium. For in vitro hatching experiments, blastocysts were cultured in micro drops of Knockout DMEM medium (Invitrogen) with serum replacement in a drop under mineral oil at 37°C and 5% CO2 [27]. For in vitro embryo outgrowth onto extracellular matrix, hatched blastocysts were cultured for an additional 48 h at 37°C and 5% CO2 in DMEM plus 5% (v/v) fetal bovine serum on […] Nunc tissue culture dishes coated with extracellular matrix derived from 10% Triton X-100 (v/v) treated mouse embryo fibroblasts. Inhibitors or anti-ISP mAbs were mixed into media at stated concentrations. For antibody inhibition experiments, anti-ISP hybridoma supernatants (or negative control supernatants) were mixed with embryo culture media at an appropriate concentration. For inhibitor experiments, negative controls contained the medium used to dispense Gabexate mesylate.

hatched blastocysts [2] = test: In vitro embryo outgrowth onto extracellular matrix; format: cell-based; conditions: for Embryo death: 48 hrs
Source text: Implantation was simulated in vitro by growth of the hatched blastocysts in culture plates coated with the extracellular matrix derived from mouse embryonic fibroblasts, which can be invaded by outgrowing embryos (Fig. 6C and 6D). The effect of Gabexate on blastocyst outgrowth is also incremental with increasing concentration of Gabexate (Fig. 7B). […] A similar result was not observed for individual or combined mAbs, possibly owing to the abundance of ISP enzyme that occurs within the uterine fluid.
as §2

embryo implantation = test: Effect on pregnancy after injection into the uterine lumen; format: in vivo, CD1 mice; conditions: for # pregnant / # embryos: 10 ul of 10 mM per uterine horn at 2.5 dpc, examined at 7.5 dpc; for Rate (%) of pregnancy: rate of pregnancy in Controls assumed as 100%
Description: CD1 mice were obtained at the age of 6–8 weeks from Charles River Canada (St. Constant, Quebec) and maintained in a standard laboratory animal facility with controlled temperature (20°C), humidity and light cycle (lights on between 0700 and 1900 hr). The maintenance and treatment of animals was in full compliance with the Standard laboratory animal care protocols approved by the University of Calgary Animal Care Committee. To obtain natural pregnancies, female mice were paired with adult males and checked daily for the presence of vaginal copulatory plugs, as an indication of mating. The day of plug detection is designated as day 0.5 post coetum. For collection of uteri and embryos, pregnant dams were sacrificed on a specific day by cervical dislocation.
Uterine horns were exposed surgically whereupon inhibitor or anti-ISP antibodies were injected into the uterine lumen using the minimum possible volume (10 μl fluid was injected per horn). Since Gabexate was dissolved in normal saline, the control mice were injected with normal saline solution.

hatched blastocysts [3] = test: In vitro embryo outgrowth onto extracellular matrix; format: cell-based
ISP1-ISP2 enzyme complex [4] = target: T1, ISP1-ISP2 enzyme complex; test: Substrate affinity (Km) of synthetic chromogenic substrates for ISP enzyme complex; format: biochemical; conditions: Km = [S] at 1/2 Vmax
Description: To determine the substrate specificity of the ISP complex and to classify it into a subclass of the S1 family of serine proteinases, enzyme assays were carried out using different p-nitroanilide linked peptide (1–3 mer) substrates. These included chymotrypsin-like (Tyr/Phe at cleavage (P1) site), trypsin-like (Arg/Lys at P1 position), elastase-like (Ala at P1 position), and subtilisin-like (Leu at P1 position) substrates. In order to compare affinity of specific substrates and derive Michaelis Menton constant (Km) values, the kinetic curves were plotted (substrate conc. [S] vs. rate of reaction [v]).
as §1

[5] = 4 mM BAPNA substrate, 25 mM Tris.Cl pH 8.0, room temperature, read-out: IC50%
[6] = Expt 06, 0.01 mM, 5 embryos/drop, control 4
[7] = Expt 06, 0.05 mM, 5 embryos/drop, control 4
[8] = Expt 06, 0.1 mM, 5 embryos/drop, control 4
[9] = Expt 07, 0.1 mM, 5 embryos/drop, control 6 of 6
[10] = Expt 07, 0.5 mM, 6 embryos/drop, control 6
[11] = Expt 04, 0.1 mM, 6 embryos/drop, control 6
[12] = Expt 04, 0.25 mM, 6 embryos/drop, control 6

T1 sequence (Q924N9 27-274): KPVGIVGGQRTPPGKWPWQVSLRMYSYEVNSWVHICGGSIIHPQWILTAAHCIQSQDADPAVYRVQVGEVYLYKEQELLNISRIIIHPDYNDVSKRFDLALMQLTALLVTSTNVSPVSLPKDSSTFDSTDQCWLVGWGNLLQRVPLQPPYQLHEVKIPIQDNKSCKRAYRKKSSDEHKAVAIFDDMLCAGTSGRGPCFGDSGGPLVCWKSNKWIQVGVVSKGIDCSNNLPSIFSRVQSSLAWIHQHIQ
T1 sequence (Q99MS4 18-279): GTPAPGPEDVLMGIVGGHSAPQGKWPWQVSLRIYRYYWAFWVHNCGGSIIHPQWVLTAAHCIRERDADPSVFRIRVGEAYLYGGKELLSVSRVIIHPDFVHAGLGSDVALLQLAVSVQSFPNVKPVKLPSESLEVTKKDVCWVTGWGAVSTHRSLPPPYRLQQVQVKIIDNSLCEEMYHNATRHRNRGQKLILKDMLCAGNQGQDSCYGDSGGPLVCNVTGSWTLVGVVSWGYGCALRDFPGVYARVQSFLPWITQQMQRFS

Molecule: Cc1ccc(S(=O)(=O)N[C@@H](CCCCN)C(=O)CCl)cc1.Cl [TLCK, L-1-chloro-3[4-tosyl-amido]-7-amino-2-heptanone-HCl]
- IC50 (ISP1-ISP2 enzyme complex [1]; [5]): 8000 µM
- Ki (ISP1-ISP2 enzyme complex [1]; BAPNA substrate): 2180 µM
- Influence on ISP activity (ISP1-ISP2 enzyme complex [1]): inhibitory influence

Molecule: CCOC(=O)c1ccc(OC(=O)CCCCCNC(=N)N)cc1 [Gabexate mesylate]
- IC50 (ISP1-ISP2 enzyme complex [1]; [5]): 1800 µM
- Affinity for ISP enzyme (ISP1-ISP2 enzyme complex [1]): relatively high affinity
- Ki (ISP1-ISP2 enzyme complex [1]; BAPNA substrate): 490 µM
- Influence on ISP activity (ISP1-ISP2 enzyme complex [1]): inhibitory influence
- Embryo death (blastocysts; CD1, mouse, 24 h, 0.1 mM): all died
- Embryo death (blastocysts; CD1, mouse, 24 h, 0.5 mM): all died
- Embryo death (blastocysts; CD1, mouse, 24 h, 2 mM): all died
- Embryos hatched after 24 hrs. (blastocysts; Expt 05, 0.1 mM, 6 embryos/drop, control 6): 0
- Embryos hatched after 24 hrs. (blastocysts; Expt 05, 0.5 mM, 6 embryos/drop, control 6): 0
- Embryos hatched after 24 hrs. (blastocysts; Expt 05, 2.0 mM, 6 embryos/drop, control 6): 0
- Embryos hatched after 24 hrs. (blastocysts; [6]): 4
- Embryos hatched after 48 hrs. (blastocysts; [6]): 4
- Embryos hatched after 24 hrs. (blastocysts; [7]): 4
- Embryos hatched after 48 hrs. (blastocysts; [7]): 4
- Embryos hatched after 24 hrs. (blastocysts; [8]): 0
- Embryos hatched after 48 hrs. (blastocysts; [8]): 2
- Embryos hatched after 24 hrs. (blastocysts; [9]): 0
- Embryos hatched after 48 hrs. (blastocysts; [9]): 2
- Embryos hatched after 24 hrs. (blastocysts; [10]): 0
- Embryos hatched after 48 hrs. (blastocysts; [10]): 0
- Embryos hatched after 24 hrs. (blastocysts; Expt 08, 0.1 mM, 16 embryos/drop, control 4 of 17): 3
- Embryos hatched after 48 hrs. (blastocysts; Expt 08, 0.1 mM, 16 embryos/drop, control 12 of 17): 3
- Embryos hatched after 24 hrs. (blastocysts; Expt 08, 0.5 mM, 17 embryos/drop, control 4): 1
- Embryos hatched after 48 hrs. (blastocysts; Expt 08, 0.5 mM, 17 embryos/drop, control 12): 3
- Effect on in vitro embryo hatching (blastocysts; compared to controls): almost completely inhibited
- Embryos outgrown after 48 hrs. (hatched blastocysts [2]; Experiment 03, 0.1 mM, 8 hatched embryos, control 5): 0
- Embryos outgrown after 48 hrs. (hatched blastocysts [2]; Experiment 03, 0.5 mM, 8 hatched embryos, control 5): 1
- Embryos outgrown after 48 hrs. (hatched blastocysts [2]; Experiment 04, 0.1 mM, 11 hatched embryos, control 6): 5
- Embryos outgrown after 48 hrs. (hatched blastocysts [2]; Experiment 04, 0.5 mM, 11 hatched embryos, control 6): 1
- Effect on in vitro embryo outgrowth (hatched blastocysts [2]; compared to controls): almost completely inhibited
- # pregnant (embryo implantation; group 1, 11 mice, Control 1: 6 of 6): 1
- # embryos (embryo implantation; group 1, 11 mice, Control 1: 72): 2
- Rate (%) of pregnancy (embryo implantation; group 1): 2.8%
- # pregnant (embryo implantation; group 2, 6 mice, Control 2: 4 of 4): 1
- # embryos (embryo implantation; group 2, 6 mice, Control 2: 22): 3
- Rate (%) of pregnancy (embryo implantation; group 2): 13.6%
- Effect on embryo implantation in vivo (embryo implantation; injected into the uterine lumen at 2.5 dpc, compared with controls): rate of pregnancy drops to very low
- Embryos outgrown after 72 hrs. (hatched blastocysts [3]; Experiment 03, 0.1 mM, 8 hatched embryos, control 7): 4
- Embryos outgrown after 72 hrs. (hatched blastocysts [3]; Experiment 03, 0.5 mM, 8 hatched embryos, control 7): 2
- Embryos outgrown after 72 hrs. (hatched blastocysts [3]; Experiment 04, 0.1 mM, 11 hatched embryos, control 9): 6
- Embryos outgrown after 72 hrs. (hatched blastocysts [3]; Experiment 04, 0.5 mM, 11 hatched embryos, control 9): 2

Molecule: N=C(N)c1ccc(CS(=O)(=O)F)cc1 [APMSF, 4-(Amidino-Phenyl)-Methane-Sulfonyl Fluoride]
- IC50 (ISP1-ISP2 enzyme complex [1]; [5]): 19500 µM
- Ki (ISP1-ISP2 enzyme complex [1]; BAPNA substrate): 5310 µM
- Influence on ISP activity (ISP1-ISP2 enzyme complex [1]): inhibitory influence

Molecule: CC(C)[C@H](NC(=O)[C@H](Cc1ccccc1)NC(=O)c1ccccc1)C(=O)N[C@@H](CCCN=C(N)N)C(=O)Nc1ccc([N+](=O)[O-])cc1 [BPVANA, N-Benzoyl-Phe-Val-Arg-pNA] (Bz-Phe-Val-Arg-pNA)
- Km (ISP1-ISP2 enzyme complex [4]): 60 µM

Molecule: UPTI: rPorcine Uterine Plasmin Trypsin Inhibitor
- IC50 (ISP1-ISP2 enzyme complex [1]; BAPNA substrate, no effect up to stated concentration, read-out: IC50% (No effect up to)): > 500000 µM

Molecule: N=C(N)c1ccccc1 [Benzamidine hydrochloride]
- Ki (ISP1-ISP2 enzyme complex [1]; BAPNA substrate): 44300 µM
- Influence on ISP activity (ISP1-ISP2 enzyme complex [1]): inhibitory influence
- Embryo death (blastocysts; Expt 01, 50 mM, 12 embryos/drop, 24 hrs): all died
- Embryos hatched after 24 hrs. (blastocysts; Expt 01, 50 mM, 12 embryos/drop, control 9): 0
- Embryo death (blastocysts; Expt 02, 20 mM, 10 embryos/drop, 24 hrs): all died
- Embryos hatched after 24 hrs. (blastocysts; Expt 02, 20 mM, 10 embryos/drop, control 5): 0
- Embryos hatched after 24 hrs. (blastocysts; Expt 03, 0.5 mM, 11 embryos/drop, control 5): 3
- Embryos hatched after 48 hrs. (blastocysts; Expt 03, 0.5 mM, 11 embryos/drop, control 10): 4
- Embryos hatched after 24 hrs. (blastocysts; Expt 03, 1 mM, 11 embryos/drop, control 5): 4
- Embryos hatched after 48 hrs. (blastocysts; Expt 03, 1 mM, 11 embryos/drop, control 10): 7
- Embryos hatched after 24 hrs. (blastocysts; Expt 03, 4 mM, 11 embryos/drop, control 5): 2
- Embryos hatched after 48 hrs. (blastocysts; Expt 03, 4 mM, 11 embryos/drop, control 10): 2
- Embryo death (hatched blastocysts [2]; Experiment 01, 50 mM, 12 hatched embryos): all died
- Embryos outgrown after 48 hrs. (hatched blastocysts [2]; Experiment 01, 50 mM, 12 hatched embryos, control 9): 0
- Embryo death (hatched blastocysts [2]; Experiment 02, 4 mM, 10 hatched embryos): all died
- Embryos outgrown after 48 hrs. (hatched blastocysts [2]; Experiment 02, 4 mM, 10 hatched embryos, control 10): 0

Molecule: N=C(N)c1ccc2[nH]c(Cc3nc4cc(C(=N)N)ccc4[nH]3)nc2c1 [BABIM, Bis (5-amidino-2-benzimadozolyl) methane]
- IC50 (ISP1-ISP2 enzyme complex [1]; [5]): 750 µM
- Affinity for ISP enzyme (ISP1-ISP2 enzyme complex [1]): relatively high affinity
- Ki (ISP1-ISP2 enzyme complex [1]; BAPNA substrate): 204 µM
- Influence on ISP activity (ISP1-ISP2 enzyme complex [1]): inhibitory influence
- Embryos hatched after 24 hrs. (blastocysts; [11]): 5
- Embryos hatched after 48 hrs. (blastocysts; [11]): 6
- Embryos hatched after 24 hrs. (blastocysts; [12]): 1
- Embryos hatched after 48 hrs. (blastocysts; [12]): 1
- Embryo death (blastocysts; Expt 04, 0.5 mM, 6 embryos/drop, 24 hrs): all died
- Embryos hatched after 24 hrs. (blastocysts; Expt 04, 0.5 mM, 6 embryos/drop, control 6): 0

— publication PMC1713233, “Implantation Serine Proteinases heterodimerize and are critical in hatching and implantation” (BMC Developmental Biology, 2006)
